# Source: patent US10273240B2, “Cortistatin analogues, syntheses, and uses thereof” (President and Fellows of Harvard College, priority 2015, dated 2019)
# Like-named read-outs stand apart in the source and are kept apart here.
# Experiments:
# CDK8 module = target: T1, CDK8 module (Homo sapiens, UniProt P49336); assay: In vitro kinase assay, CDK8 module; format: biochemical
# T1 construct: made in house
# Method: Data was quantified with ImageJ and plotted and fitted with GraphPad Prism 6.0. For STAT1 transactivation domain (TAD), 750 ng of GST-STAT1 TAD (residues 639-750) was incubated with ˜50 ng recombinant CDK8 module at 30° C. for 8 min in kinase buffer (25 mM Tris pH 8, 2 mM DTT, 100 μM cold ATP, 100 mM KCl, 10 mM MgCl2 and 2.5 μCi [γ-^32P] ATP (Perkin Elmer) per reaction). […] 12% SDS-PAGE gels were subsequently silver stained, exposed for 18 h on a Phosphor Screen and imaged (Typhoon 9400, GE Life Sciences). For pol II CTD, 400 ng of GST-CTD (murine sequence) was incubated with ˜40 ng recombinant CDK8 module, 25 ng TFIIH, or 40 ng P-TEFb at 30° C. for 60 min in kinase buffer. Kinase amounts were chosen to give similar total pol II CTD signal. 9% SDS-PAGE gels were silver stained and exposed as above. In vitro FLAG-CDK8 kinase assays used ˜40 ng kinase and 500 ng GST-CTD. […] All experiments were performed twice.
# [1] = test system: luciferase-expressing MV4;11 cells; assay: MV4;11 xenotransplant model of disseminated human AML; format: in vivo; conditions: IP once daily for 15 days, NSG mice
# Method: In Vivo Studies. Studies were performed at Charles River Laboratories (CRL) and Dana Farber Cancer Institute (DFCI) where indicated and approved by Harvard University and each institution's respective animal care and use committee. For pharmacokinetic studies, serial blood samples from 7 week old male CD-1 mice (n=3 per timepoint) were collected (no blinding) into K2EDTA tubes, centrifuged, transferred into 96-well plates (matrix tubes), stored at −20° C., and analysed by HPLC/MS/MS (in-life performed at CRL). Study size was determined by the need for three blood samples per timepoint with three blood samples collected per mouse. The MV4; 11 xenograft model were performed as previously described (Etchin, J. et al. Antileukemic activity of nuclear export inhibitors that spare normal hematopoietic cells. Leukemia 27, 66-74 (2013); in-life performed at DFCI) Two million MV4;11-mCLP cells were injected into the tail vein of 7-week-old female NOD-SCID-IL2Rcγ^null (NSG) mice (The Jackson Laboratory) and tumor burden was assessed by bioluminescence imaging (BLI) using an IVIS Spectrum system (Caliper Life Sciences). […] After 30 days, blood counts were obtained (Hemavet 950 F, Drew Scientific) and spleen, femur, and peripheral blood cells were collected and analysed by flow cytometry (LSR Fortessa, BD Biosciences) from 3 mice/group. […]
# [2] = test system: subcutaneously implanted SET-2 cells; assay: SET-2 subcutaneous xenotransplant model; format: in vivo; conditions: SCID beige mice, IP dosing daily
# [3] = target: T2, CDK9 in MOLM-14 cell lysate (Homo sapiens, UniProt P50750); assay: Native kinase capture immunoblot, CDK9; format: binding
# T2 construct: endogenous in cells; host or cells: MOLM-14 cell lysate
# Method: Native Kinase Capture Immunoblot and Native Kinome-Wide Profiling. […] Experiment was performed twice with one immunoblot shown.
# UKE-1 = assay: Cell growth assay, UKE-1; format: cell-based; conditions: Homo sapiens, UKE1, 240 h; CA, after 10 days
# Method: (§1) Cell Culture. All media was supplemented with 100 U/mL penicillin and 100 μg/mL streptomycin. Human cancer cell lines were grown in the following media: MV4; 11, RS4; 11, K562, HEL, MOLM-14, MEG-01 in RPMI-1640, 10% FBS; SET-2 in RPMI-1640, 20% FBS; UKE-1 in RPMI-1640, 10% FBS, 10% horse serum and 1 μM hydrocortisone; SKNO-1 and TF-1 in RPMI-1640, 10% FBS, and 10 or 2 ng/mL GM-CSF, respectively; HaCaT in DMEM, 10% FBS; and HCT116 in McCoy's 5 A, 10% FBS (proliferation assay) or DMEM, 10% FBS (gene expression study). HepG2, MV4;11, RS4;11, MEG-01, TF-1, HCT116 and K562 were from ATCC. SKNO-1 was from DSMZ. HEL, UKE-1, and SET-2 were provided by Ross L. Levine and HaCaT, MV4;11-mCLP, and MOLM-14 by Van Wilson, Andrew L. Kung, and Scott A. Armstrong, respectively. MOLM-14 cells were authenticated by STR profiling and flow cytometry and all cell lines were routinely tested and found to be negative for mycoplasma.
# SKNO-1 = assay: Cell growth assay, SKNO-1; format: cell-based; conditions: Homo sapiens, SKNO-1, 240 h
# Method: All media was supplemented with 100 U/mL penicillin and 100 μg/mL streptomycin. Human cancer cell lines were grown in the following media: MV4; 11, K562, MOLM-14 in RPMI-1640, 10% FBS; SKNO-1 in RPMI-1640, 10% FBS, and 10 ng/mL GM-CSF; MV4;11 and K562 were from ATCC. SKNO-1 was from DSMZ.
# as §1
# T1 sequence (P49336 whole entry): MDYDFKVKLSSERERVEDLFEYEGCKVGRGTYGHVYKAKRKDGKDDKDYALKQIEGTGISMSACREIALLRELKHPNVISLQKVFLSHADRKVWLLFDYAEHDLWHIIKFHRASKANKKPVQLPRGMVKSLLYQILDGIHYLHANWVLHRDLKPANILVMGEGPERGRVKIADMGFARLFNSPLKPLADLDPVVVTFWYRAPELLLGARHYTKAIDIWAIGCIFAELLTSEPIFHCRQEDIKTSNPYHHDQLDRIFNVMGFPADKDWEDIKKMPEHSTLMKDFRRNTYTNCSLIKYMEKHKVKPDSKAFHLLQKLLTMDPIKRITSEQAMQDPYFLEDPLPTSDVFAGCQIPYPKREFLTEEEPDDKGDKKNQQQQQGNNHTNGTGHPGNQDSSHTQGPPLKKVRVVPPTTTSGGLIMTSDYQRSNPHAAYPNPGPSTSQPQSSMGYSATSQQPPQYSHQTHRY
# T1 sequence (P24863 whole entry partner): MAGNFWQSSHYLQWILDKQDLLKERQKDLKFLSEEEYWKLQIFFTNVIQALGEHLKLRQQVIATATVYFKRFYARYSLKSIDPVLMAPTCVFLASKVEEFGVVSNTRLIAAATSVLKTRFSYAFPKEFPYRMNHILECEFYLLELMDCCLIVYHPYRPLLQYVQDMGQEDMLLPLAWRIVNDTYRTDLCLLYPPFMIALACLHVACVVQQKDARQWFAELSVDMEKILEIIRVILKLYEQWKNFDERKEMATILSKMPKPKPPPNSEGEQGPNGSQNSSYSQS
# T1 sequence (Q93074 whole entry partner): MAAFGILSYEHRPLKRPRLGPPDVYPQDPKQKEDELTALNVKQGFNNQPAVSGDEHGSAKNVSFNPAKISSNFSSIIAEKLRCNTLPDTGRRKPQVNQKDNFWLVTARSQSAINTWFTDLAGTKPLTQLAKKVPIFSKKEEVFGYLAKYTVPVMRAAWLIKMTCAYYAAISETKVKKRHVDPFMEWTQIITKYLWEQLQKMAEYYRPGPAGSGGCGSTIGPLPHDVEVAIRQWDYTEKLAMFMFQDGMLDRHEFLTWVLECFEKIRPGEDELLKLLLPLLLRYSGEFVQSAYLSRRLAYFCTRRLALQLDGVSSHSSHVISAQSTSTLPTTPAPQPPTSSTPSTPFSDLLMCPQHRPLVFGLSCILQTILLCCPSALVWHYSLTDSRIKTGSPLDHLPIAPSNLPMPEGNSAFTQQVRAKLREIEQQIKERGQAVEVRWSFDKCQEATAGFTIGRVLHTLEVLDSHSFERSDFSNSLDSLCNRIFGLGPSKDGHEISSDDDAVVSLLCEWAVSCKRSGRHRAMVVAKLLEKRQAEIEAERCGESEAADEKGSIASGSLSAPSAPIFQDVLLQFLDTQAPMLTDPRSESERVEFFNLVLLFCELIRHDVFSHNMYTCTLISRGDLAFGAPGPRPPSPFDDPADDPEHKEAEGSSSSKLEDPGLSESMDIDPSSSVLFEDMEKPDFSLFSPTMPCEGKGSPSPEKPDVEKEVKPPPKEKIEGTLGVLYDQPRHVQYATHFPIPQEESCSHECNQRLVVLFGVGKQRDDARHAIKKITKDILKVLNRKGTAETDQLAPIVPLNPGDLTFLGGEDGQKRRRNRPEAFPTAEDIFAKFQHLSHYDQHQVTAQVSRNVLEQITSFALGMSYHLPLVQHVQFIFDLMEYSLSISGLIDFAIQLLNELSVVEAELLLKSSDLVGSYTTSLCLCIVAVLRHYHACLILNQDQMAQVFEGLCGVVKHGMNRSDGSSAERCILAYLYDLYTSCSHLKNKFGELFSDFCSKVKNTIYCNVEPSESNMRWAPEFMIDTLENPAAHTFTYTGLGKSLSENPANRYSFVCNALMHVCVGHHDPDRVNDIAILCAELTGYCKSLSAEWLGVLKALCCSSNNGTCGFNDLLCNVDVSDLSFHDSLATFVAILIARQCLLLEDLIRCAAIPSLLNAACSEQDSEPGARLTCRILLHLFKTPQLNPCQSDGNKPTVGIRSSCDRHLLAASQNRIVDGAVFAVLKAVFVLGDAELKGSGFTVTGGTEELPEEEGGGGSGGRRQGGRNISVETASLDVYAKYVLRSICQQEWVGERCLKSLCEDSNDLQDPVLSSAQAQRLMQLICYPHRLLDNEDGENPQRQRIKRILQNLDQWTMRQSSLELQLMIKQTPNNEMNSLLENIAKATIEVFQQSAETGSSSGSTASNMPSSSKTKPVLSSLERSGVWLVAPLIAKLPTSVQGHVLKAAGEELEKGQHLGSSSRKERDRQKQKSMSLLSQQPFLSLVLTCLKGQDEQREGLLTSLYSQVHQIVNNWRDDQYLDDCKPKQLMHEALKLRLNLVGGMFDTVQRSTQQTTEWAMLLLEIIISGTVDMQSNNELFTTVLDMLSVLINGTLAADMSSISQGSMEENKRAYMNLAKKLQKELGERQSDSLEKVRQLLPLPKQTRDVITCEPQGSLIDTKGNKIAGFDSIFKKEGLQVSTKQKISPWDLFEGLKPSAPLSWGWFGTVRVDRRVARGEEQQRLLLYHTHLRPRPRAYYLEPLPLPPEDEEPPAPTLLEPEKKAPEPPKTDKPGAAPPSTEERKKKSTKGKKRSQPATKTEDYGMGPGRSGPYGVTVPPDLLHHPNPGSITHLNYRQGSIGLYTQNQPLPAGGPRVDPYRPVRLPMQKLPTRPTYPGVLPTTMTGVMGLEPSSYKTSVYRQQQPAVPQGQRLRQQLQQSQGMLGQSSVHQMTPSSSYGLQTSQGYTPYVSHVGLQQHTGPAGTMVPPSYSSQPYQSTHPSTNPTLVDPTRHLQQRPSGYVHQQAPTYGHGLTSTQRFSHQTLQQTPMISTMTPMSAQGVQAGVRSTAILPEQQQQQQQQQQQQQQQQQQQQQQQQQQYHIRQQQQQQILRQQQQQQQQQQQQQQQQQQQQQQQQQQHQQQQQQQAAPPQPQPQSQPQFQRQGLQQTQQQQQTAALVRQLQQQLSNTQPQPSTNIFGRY
# T1 sequence (Q9UHV7 whole entry partner): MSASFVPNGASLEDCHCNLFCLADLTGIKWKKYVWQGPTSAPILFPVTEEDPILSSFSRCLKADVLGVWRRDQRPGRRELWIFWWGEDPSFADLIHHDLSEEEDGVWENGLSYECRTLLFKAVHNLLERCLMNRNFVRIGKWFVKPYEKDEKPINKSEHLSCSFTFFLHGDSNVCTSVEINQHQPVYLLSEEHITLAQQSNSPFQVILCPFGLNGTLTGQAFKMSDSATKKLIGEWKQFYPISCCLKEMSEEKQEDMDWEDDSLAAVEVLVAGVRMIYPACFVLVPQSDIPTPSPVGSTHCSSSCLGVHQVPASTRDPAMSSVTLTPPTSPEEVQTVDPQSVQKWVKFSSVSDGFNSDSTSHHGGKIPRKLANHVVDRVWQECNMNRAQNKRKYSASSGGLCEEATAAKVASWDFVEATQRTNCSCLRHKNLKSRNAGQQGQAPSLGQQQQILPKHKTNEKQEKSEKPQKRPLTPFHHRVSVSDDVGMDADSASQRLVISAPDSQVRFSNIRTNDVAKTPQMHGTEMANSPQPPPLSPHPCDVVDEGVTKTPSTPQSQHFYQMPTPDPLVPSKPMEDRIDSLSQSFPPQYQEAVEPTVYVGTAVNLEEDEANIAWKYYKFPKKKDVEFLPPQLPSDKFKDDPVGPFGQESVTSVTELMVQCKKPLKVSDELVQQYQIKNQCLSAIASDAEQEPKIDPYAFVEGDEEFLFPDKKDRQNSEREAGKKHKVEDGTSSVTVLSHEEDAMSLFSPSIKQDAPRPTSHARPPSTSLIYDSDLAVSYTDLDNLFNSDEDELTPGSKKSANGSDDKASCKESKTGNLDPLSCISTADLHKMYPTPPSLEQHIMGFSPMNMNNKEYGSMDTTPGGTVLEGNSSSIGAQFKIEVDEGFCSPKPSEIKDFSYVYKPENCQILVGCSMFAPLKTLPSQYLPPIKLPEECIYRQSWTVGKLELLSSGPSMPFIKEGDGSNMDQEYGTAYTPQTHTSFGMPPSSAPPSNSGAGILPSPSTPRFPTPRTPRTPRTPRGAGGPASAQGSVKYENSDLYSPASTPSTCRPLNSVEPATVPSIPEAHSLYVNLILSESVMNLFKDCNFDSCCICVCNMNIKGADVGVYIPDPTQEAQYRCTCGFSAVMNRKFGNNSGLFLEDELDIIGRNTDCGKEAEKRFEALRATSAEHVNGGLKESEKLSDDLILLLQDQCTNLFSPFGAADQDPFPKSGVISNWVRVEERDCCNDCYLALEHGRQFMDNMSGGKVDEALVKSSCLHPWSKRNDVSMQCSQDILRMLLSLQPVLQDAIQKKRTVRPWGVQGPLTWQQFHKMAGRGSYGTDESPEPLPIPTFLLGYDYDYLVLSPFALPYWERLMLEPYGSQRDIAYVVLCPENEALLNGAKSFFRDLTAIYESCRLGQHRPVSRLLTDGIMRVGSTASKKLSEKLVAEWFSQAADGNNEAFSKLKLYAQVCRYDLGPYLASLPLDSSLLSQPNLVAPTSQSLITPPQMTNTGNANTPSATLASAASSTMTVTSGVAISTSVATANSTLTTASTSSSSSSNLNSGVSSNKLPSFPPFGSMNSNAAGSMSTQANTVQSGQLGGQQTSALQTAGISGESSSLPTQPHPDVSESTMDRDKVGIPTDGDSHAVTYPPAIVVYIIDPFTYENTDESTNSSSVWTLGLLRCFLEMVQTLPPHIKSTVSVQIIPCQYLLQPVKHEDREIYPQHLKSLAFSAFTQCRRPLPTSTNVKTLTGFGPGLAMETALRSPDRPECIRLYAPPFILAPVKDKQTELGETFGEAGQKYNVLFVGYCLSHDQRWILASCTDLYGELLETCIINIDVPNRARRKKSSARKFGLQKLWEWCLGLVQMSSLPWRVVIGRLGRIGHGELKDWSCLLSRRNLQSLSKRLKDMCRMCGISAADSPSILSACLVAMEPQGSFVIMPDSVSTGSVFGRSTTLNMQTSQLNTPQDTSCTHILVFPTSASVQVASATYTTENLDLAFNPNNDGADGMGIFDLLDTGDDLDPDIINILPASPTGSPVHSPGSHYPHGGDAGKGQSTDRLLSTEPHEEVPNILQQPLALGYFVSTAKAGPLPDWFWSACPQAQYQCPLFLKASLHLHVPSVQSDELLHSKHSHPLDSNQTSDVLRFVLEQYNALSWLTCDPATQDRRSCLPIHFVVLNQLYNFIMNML
smiles,measurement,setting,value
"CN(C)[C@H]1C[C@@]23CC[C@@]4(O2)C(=CC[C@@]2(C)[C@@H](c5ccc6ccncc6c5)CC[C@H]24)C=C3[C@@H](O)[C@@H]1O [CA, cortistatin A]",inhibition of kinase activity of the CDK8 module,CDK8 module,potently inhibited
same,"disease progression (bioluminescence, spleen weight, leukemia cell burden, survival)",[1],dose-dependent reduction in disease progression
same,median extension in survival,[1],29.5 days
same,body weight,[2],no loss in body weight
same,tumor volume reduction,[2],71%
same,binding of CDK9 (no binding at up to),[3],> 2500 nM
same,GI50,UKE-1,7 nM
same,GI50,"SKNO-1; CA, after 10 days, read-out: Mean GI50 (nM), SKNO-1",1 nM
same,GI50,SKNO-1; read-out: SKNO-1 GI50 day 10,< 0.4 nM
